Earlier results on one substance are cited in patent US9662346B2, “Method of treating hyperesthesia, paresthesia, dolor, and pruritus caused by insect stings or noxious weeds or plants using avermectin compound” (priority 2007, dated 2017).

For data set [1] the following is noted: oral dosage of a moderate ivermectin concentration.
The next data set concerns head lice. The conditions noted are these: single topical application.

As to ivermectin, the safety in human entry in data set [1] is listed as “safe in human, without serious adverse side effects”. Besides, the “effect on head lice” value in the data set with head lice was “curative effect”.
